The source made the active and inactive calls. No cut-off for these calls is given here.
What was measured:
[1] = target: Casein kinase I isoform delta (Homo sapiens) (UniProt P48730); assay: Inhibition of human CK1delta at 1 uM using KRRRAL[pS]VASLPGL as substrate in presence of [gamma33P]-ATP by HotSpot assay relative to control
[2] = target: Inhibitor of nuclear factor kappa-B kinase subunit alpha (Homo sapiens) (UniProt O15111); assay: Inhibition of human CHUK at 1 uM using KKKKERLLDDRHDSGLDSMKDEE as substrate in presence of [gamma33P]-ATP by HotSpot assay relative to control
[3] = target: CDK9/Cyclin K (Homo sapiens) (UniProt P50750+O75909); assay: Inhibition of human CDK9/CyclinK at 1 uM using KTFCGTPEYLAPEVRREPRILSEEEQEMFRDFDYIADWC as substrate in presence of [gamma33P]-ATP by HotSpot assay relative to control; assay type: protein-complex assay
[4] = target: Serine/threonine-protein kinase Chk2 (Homo sapiens, UniProt O96017); assay: Inhibition of human CHEK2 using KKKVSRSGLYRSPSMPENLNRPR as substrate in presence of [gamma33P]-ATP by HotSpot assay
[5] = target: Tyrosine-protein kinase Yes (Homo sapiens, UniProt P07947); assay: Inhibition of human YES1 using poly (Glu, Tyr)4:1 as substrate in presence of [gamma33P]-ATP by HotSpot assay
Sequence of Tyrosine-protein kinase Yes (P07947 whole entry): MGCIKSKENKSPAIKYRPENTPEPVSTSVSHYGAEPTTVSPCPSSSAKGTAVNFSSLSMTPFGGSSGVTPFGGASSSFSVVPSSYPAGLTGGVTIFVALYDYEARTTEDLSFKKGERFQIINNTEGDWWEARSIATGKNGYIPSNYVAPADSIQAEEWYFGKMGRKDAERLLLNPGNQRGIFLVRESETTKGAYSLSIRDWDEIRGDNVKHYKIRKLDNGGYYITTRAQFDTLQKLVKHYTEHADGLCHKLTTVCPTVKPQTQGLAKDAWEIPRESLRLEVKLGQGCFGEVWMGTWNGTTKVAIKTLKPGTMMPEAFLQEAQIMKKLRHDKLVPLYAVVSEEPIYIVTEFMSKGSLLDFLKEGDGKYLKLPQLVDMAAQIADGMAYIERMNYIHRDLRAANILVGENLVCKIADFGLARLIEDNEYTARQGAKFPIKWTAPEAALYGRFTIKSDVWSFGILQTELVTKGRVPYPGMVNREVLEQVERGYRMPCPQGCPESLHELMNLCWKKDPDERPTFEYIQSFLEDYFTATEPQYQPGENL

[6] = target: Tyrosine-protein kinase FRK (Homo sapiens, UniProt P42685); assay: Inhibition of human FRK using RLGRDKYKTLRQIRQ as substrate in presence of [gamma33P]-ATP by HotSpot assay
Sequence of Tyrosine-protein kinase FRK (P42685 whole entry): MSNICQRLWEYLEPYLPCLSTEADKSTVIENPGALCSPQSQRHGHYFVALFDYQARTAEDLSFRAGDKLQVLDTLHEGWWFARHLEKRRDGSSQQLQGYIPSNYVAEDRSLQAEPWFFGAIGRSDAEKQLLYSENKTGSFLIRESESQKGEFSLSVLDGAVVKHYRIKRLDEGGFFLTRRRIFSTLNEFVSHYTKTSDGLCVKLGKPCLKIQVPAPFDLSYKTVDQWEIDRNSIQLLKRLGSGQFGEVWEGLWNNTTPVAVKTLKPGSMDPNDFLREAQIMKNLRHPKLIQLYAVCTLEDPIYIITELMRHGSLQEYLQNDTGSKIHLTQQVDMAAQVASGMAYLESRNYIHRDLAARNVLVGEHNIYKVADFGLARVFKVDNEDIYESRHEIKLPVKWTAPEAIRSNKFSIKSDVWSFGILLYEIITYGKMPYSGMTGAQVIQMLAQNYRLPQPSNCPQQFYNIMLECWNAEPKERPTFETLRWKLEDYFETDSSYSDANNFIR

[7] = target: Tyrosine-protein kinase JAK2 (Homo sapiens, UniProt O60674); assay: Inhibition of human JAK2 using poly (Glu, Tyr)4:1 as substrate in presence of [gamma33P]-ATP by HotSpot assay
Sequence of Tyrosine-protein kinase JAK2 (O60674 whole entry): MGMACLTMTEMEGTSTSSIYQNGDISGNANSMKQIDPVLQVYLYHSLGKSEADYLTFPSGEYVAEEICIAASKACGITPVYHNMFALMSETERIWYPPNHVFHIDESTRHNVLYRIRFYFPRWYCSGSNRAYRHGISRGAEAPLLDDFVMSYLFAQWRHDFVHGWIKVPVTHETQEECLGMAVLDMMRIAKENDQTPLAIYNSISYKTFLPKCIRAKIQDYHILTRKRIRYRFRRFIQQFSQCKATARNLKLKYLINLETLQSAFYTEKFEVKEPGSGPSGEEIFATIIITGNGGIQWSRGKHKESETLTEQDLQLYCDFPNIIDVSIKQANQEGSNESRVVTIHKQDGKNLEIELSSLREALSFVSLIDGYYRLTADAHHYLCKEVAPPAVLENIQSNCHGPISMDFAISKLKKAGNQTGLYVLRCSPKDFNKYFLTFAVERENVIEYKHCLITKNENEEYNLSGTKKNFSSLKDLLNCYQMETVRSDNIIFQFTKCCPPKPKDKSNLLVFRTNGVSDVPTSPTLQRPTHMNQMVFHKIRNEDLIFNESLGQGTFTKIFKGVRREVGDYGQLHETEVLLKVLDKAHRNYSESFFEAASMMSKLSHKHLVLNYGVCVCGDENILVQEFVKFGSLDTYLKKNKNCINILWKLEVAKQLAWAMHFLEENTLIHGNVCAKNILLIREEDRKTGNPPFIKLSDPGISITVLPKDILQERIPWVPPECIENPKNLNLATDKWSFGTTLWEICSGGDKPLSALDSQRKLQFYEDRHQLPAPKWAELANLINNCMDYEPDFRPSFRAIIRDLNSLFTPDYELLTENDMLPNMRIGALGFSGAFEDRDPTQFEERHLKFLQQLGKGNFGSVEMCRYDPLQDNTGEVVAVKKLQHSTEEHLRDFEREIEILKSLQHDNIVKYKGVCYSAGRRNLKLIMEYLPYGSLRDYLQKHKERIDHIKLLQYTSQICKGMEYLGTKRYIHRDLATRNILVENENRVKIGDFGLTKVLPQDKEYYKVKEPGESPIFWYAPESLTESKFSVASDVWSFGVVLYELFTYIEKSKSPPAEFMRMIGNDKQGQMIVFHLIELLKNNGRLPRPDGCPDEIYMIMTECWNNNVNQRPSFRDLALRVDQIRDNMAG

[8] = target: Tyrosine-protein kinase Lyn (Homo sapiens, UniProt P07948); assay: Inhibition of human LYN using poly (Glu, Tyr)4:1 as substrate in presence of [gamma33P]-ATP by HotSpot assay
[9] = target: Serine/threonine-protein kinase BRSK1 (Homo sapiens, UniProt Q8TDC3); assay: Inhibition of human BRSK1 using KKKVSRSGLYRSPSMPENLNRPR as substrate in presence of [gamma33P]-ATP by HotSpot assay
[10] = target: Serine/threonine-protein kinase PLK1 (Homo sapiens, UniProt P53350); assay: Inhibition of human PLK1 using casein as substrate in presence of [gamma33P]-ATP by HotSpot assay
[11] = target: Tyrosine-protein kinase BTK (Homo sapiens, UniProt Q06187); assay: Inhibition of human BTK using poly (Glu, Tyr)4:1 as substrate in presence of [gamma33P]-ATP by HotSpot assay
Homo sapiens = species: Homo sapiens; assay: Inhibition of human CDK2/CyclinA at 1 uM using RB protein as substrate in presence of [gamma33P]-ATP by HotSpot assay relative to control
[12] = target: Myotonin-protein kinase (Homo sapiens) (UniProt Q09013); assay: Inhibition of human DMPK at 1 uM using KKRNRRLSVA as substrate in presence of [gamma33P]-ATP by HotSpot assay relative to control
Sequence of Myotonin-protein kinase (Homo sapiens) (Q09013 whole entry): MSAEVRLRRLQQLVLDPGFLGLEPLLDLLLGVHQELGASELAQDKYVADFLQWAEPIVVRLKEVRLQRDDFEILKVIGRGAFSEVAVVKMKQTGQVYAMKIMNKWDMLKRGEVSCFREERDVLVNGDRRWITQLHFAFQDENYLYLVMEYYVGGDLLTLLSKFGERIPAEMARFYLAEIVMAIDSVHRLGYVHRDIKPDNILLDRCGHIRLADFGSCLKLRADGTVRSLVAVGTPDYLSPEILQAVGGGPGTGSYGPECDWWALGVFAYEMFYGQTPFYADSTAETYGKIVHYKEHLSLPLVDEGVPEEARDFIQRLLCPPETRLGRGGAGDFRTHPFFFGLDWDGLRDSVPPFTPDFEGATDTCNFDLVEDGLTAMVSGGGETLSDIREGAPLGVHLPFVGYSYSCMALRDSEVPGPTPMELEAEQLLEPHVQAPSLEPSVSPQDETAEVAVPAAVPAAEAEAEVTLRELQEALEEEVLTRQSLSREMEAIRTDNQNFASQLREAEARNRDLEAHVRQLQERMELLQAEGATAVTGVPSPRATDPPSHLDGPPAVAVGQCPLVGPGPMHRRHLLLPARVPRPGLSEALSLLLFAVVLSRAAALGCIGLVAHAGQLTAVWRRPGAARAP

[13] = target: Homeodomain-interacting protein kinase 4 (Homo sapiens) (UniProt Q8NE63); assay: Inhibition of human HIPK4 at 1 uM using MBP as substrate in presence of [gamma33P]-ATP by HotSpot assay relative to control
[14] = target: Mitogen-activated protein kinase 10 (Homo sapiens) (UniProt P53779); assay: Inhibition of human MAPK10 at 1 uM using ATF2 as substrate in presence of [gamma33P]-ATP by HotSpot assay relative to control
Sequence of Mitogen-activated protein kinase 10 (Homo sapiens) (P53779 whole entry): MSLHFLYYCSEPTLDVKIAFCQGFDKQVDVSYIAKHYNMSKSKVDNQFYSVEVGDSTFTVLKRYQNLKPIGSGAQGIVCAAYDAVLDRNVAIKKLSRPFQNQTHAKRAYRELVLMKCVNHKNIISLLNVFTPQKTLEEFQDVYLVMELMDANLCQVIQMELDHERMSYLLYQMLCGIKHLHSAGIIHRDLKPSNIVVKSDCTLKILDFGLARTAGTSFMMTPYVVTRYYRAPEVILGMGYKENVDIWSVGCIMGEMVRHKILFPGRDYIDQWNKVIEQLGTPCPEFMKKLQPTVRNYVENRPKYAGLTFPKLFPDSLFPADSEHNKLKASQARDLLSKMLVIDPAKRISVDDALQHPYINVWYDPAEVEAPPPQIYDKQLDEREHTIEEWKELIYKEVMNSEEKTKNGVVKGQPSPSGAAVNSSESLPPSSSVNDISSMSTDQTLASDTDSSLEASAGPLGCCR

[15] = target: Serine/threonine-protein kinase Nek2 (Homo sapiens) (UniProt P51955); assay: Inhibition of human NEK2 at 1 uM using MBP substrate in presence of [gamma33P]-ATP by HotSpot assay relative to control
Sequence of Serine/threonine-protein kinase Nek2 (Homo sapiens) (P51955 whole entry): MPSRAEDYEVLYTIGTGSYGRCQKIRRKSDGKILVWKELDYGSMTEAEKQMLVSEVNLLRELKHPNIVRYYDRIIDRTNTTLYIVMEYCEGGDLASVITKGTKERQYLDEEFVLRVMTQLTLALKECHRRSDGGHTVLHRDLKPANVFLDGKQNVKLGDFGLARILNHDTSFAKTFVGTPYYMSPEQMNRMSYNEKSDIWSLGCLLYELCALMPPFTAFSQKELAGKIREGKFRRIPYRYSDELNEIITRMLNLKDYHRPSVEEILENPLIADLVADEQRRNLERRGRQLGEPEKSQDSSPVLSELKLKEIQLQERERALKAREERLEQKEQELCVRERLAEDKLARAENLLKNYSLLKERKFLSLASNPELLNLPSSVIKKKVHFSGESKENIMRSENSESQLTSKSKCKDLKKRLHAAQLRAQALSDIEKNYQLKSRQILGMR

[16] = target: Serine/threonine-protein kinase PAK 2 (Homo sapiens) (UniProt Q13177); assay: Inhibition of human PAK2 at 1 uM using RRRLSFAEPG as substrate in presence of [gamma33P]-ATP by HotSpot assay relative to control
[17] = system: Platelet-derived growth factor receptor alpha (Homo sapiens), P16234 [T674I]; assay: Inhibition of human PDGFRalpha T674I mutant at 1 uM using poly (Glu, Tyr)4:1 as substrate in presence of [gamma33P]-ATP by HotSpot assay relative to control
[18] = target: cGMP-dependent protein kinase 2 (Homo sapiens) (UniProt Q13237); assay: Inhibition of human PRKG2 at 1 uM using LRRASLG as substrate in presence of [gamma33P]-ATP by HotSpot assay relative to control
Sequence of cGMP-dependent protein kinase 2 (Homo sapiens) (Q13237 whole entry): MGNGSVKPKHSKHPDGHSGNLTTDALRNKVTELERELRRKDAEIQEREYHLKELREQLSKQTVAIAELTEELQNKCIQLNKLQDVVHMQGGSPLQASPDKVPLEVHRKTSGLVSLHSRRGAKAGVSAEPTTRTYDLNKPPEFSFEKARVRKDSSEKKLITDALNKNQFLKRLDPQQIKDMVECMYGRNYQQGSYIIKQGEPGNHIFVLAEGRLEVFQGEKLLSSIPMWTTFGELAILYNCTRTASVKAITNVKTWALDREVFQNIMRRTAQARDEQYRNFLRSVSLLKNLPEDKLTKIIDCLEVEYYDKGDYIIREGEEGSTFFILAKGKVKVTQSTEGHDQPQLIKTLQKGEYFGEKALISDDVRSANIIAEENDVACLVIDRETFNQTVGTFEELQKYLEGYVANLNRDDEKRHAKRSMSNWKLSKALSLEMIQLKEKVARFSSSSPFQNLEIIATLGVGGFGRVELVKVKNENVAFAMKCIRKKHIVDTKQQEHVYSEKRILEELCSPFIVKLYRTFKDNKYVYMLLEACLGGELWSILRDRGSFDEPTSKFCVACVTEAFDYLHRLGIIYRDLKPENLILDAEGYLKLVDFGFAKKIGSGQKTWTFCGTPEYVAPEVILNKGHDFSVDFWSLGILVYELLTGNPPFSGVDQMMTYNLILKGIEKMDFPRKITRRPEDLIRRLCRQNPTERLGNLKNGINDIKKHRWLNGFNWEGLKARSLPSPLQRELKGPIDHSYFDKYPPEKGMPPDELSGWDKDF

[19] = target: Receptor-interacting serine/threonine-protein kinase 2 (Homo sapiens) (UniProt O43353); assay: Inhibition of human RIPK2 at 1 uM using MBP as substrate in presence of [gamma33P]-ATP by HotSpot assay relative to control
Sequence of Receptor-interacting serine/threonine-protein kinase 2 (Homo sapiens) (O43353 whole entry): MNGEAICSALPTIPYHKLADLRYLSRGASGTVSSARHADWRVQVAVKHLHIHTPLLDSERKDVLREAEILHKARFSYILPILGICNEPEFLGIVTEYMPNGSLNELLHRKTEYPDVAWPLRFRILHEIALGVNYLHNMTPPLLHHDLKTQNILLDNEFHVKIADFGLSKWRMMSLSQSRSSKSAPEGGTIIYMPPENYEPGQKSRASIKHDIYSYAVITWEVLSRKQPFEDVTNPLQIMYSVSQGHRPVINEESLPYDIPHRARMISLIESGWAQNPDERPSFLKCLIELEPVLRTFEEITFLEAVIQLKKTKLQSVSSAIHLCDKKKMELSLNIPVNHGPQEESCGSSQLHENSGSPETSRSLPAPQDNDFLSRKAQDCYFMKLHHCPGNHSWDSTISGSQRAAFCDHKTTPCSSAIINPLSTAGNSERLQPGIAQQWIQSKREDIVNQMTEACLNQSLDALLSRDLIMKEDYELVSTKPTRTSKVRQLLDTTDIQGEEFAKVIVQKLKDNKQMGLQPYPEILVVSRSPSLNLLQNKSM

[20] = target: Ribosomal protein S6 kinase alpha-5 (Homo sapiens) (UniProt O75582); assay: Inhibition of human RPS6KA5 at 1 uM using GRPRTSSFAEG as substrate in presence of [gamma33P]-ATP by HotSpot assay relative to control
[21] = target: Serine/threonine-protein kinase 33 (Homo sapiens) (UniProt Q9BYT3); assay: Inhibition of human STK33 at 1 uM using MBP as substrate in presence of [gamma33P]-ATP by HotSpot assay relative to control
NCI-H2228 = assay: Antitumor activity against ALK positive human NCI-H2228 cells xenografted in CB-17/SCID orthotopic brain tumor mouse model assessed as reduction in tumor burden in brain at 50 mg/kg, po administered daily and measured after 64 days by H&E staining based analysis; assay type: functional, organism-based; conditions: time 64.0 day
[22] = Toxicity in CB-17/SCID mouse implanted with ALK positive mouse BaF3 cells expressing EML4-ALK G1202R mutant assessed as effect on body weight at 25 to 50 mg/kg, po administered once daily and measured after 6 days; assay type: organism-based; conditions: in vivo, 144 h, dose 25-50 mg/kg, time 6 day
NCI-H23 = conditions: time 72 hrs
[23] = system: Epidermal growth factor receptor (Homo sapiens), P00533 [L858R,T790M]; conditions: BaF3, time 72.0 hrs
SU-DHL-1 = conditions: time 72 hrs
DEL = conditions: time 72 hrs
[24] = system: EML4-ALK (Homo sapiens), Q9UM73+Q9HC35 [F1174L]; conditions: BaF3, dose 500.0 nmol/L, time 3-5 weeks
[25] = system: EML4-ALK (Homo sapiens), Q9UM73+Q9HC35 [L1152R]; conditions: BaF3, dose 500.0 nmol/L, time 3-5 weeks

COc1cc(N2CCC(N3CCN(C)CC3)CC2)ccc1Nc1ncc(Cl)c(Nc2ccccc2P(C)(C)=O)n1 [BRIGATINIB]
inhibition [1]: < 90% | inhibition [2]: < 90% | inhibition [3]: < 90% | IC50 [4]: 6.5 nM | IC50 [5]: 19 nM | IC50 [6]: 52 nM | IC50 [7]: 154 nM | IC50 [8]: 241 nM | IC50 [9]: 338 nM | IC50 [10]: 611 nM | IC50 [11]: 674 nM | inhibition (Homo sapiens): < 90% | inhibition [12]: < 90% | inhibition [13]: < 90% | inhibition [14]: < 90% | inhibition [15]: < 90% | inhibition [16]: < 90% | inhibition [17]: < 90% | inhibition [18]: < 90% | inhibition [19]: < 90% | inhibition [20]: < 90% | inhibition [21]: < 90% | Activity (NCI-H2228): Active | Activity [22]: Non-Toxic | GI50 (NCI-H23): 1340 nM | IC90 [23]: 2970 nM | GI50 (SU-DHL-1): 9 nM | GI50 (DEL): 31 nM | inhibition [24]: Active | inhibition [25]: Active

Source: ChEMBL document CHEMBL5696443 (Clin Cancer Res, 2016)
